pIC50: −log10 of the molar value. Numbered stars: 1 amine (or outer) side, 2 acyl side, 3 side chain; on linkers, the order of the positions; unused ones are H or OH. Bridge positions count the residues as written; N and C are the ends. Square brackets hold non-standard residues; d marks the D form. Peptide text beside a SMILES is read from it. * marks the point of attachment. hPhe(3,5-F2-4-CF3) = N[C@@H](CCc1cc(F)c(C(F)(F)F)c(F)c1)C(=O)O; hPhe(3-Cl-4-CF3) = N[C@@H](CCc1ccc(C(F)(F)F)c(Cl)c1)C(=O)O; hPhe(3-F,4-CF3) = N[C@@H](CCc1ccc(C(F)(F)F)c(F)c1)C(=O)O; X24 = COc1cncc(C[C@@H](C(=O)[*:2])N(C)[*:1])c1; NMeGly(cPent) = CN[C@H](C(=O)O)C1CCCC1; NMeGly(cBu) = CN[C@H](C(=O)O)C1CCC1; NMeCha = CN[C@@H](CC1CCCCC1)C(=O)O; Hyp = O=C(O)[C@@H]1C[C@@H](O)CN1; NMeChg = CN[C@H](C(=O)O)C1CCCCC1; NMeT = CN[C@H](C(=O)O)[C@@H](C)O; NMeE = CN[C@@H](CCC(=O)O)C(=O)O; NMeD = CN[C@@H](CC(=O)O)C(=O)O; NMeL = CN[C@@H](CC(C)C)C(=O)O; NMeNva = CCC[C@H](NC)C(=O)O; NMeV = CN[C@H](C(=O)O)C(C)C; d(β3hA) = C[C@@H](N)CC(=O)O; Morpholide = C1CN(*)CCO1; NMeA = CN[C@@H](C)C(=O)O; Piperidide = C1CCN(*)CC1; Pyrrolidide = C1CCN(*)C1; Ac5c = NC1(C(=O)O)CCCC1; Aze = O=C(O)[C@@H]1CCN1; Sar = CNCC(=O)O
What was measured:
[1] = biological target: protein-protein interaction between Kras and SOS1 (biotin-tagged human Kras loaded with GDP, His-tagged human SOS1) (Homo sapiens (Human), UniProt P01116, G12D); assay: Protein-protein interaction inhibition between Kras and SOS1 (KrasG12D-SOS PPI) using AlphaScreen; type: biochemical; conditions: AlphaScreen; biotin-tagged human Kras loaded with GDP, His-tagged human SOS1; read-out: KRAS G12D-SOS PPI IC50;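 note: kras produced in E. coli, Ni-coupled donor beads and streptavidin acceptor beads, excitation 680 nm with emission detected at 520–620 nm via singlet oxygen transfer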
[2] = tested on: Human pancreatic cancer cell line AsPC-1 (G12D mutation Kras); assay: AsPC-1 cell growth inhibition (AsPC-1 CGI); type: cell-based; conditions: read-out: AsPC-1 cell growth inhibition, 50% growth inhibitory concentration (IC50 value); 96 hours, CellTiter-Glo, values classified in ranges
Procedure: Test compounds were serially dilated with dimethyl sulfoxide, and 200 nL was then dispensed to a U-bottom 96-well plate using Labcyte Echo. […] The cell suspension was dispensed to a. plate containing a test compound at 100 μL per well and incubated at 37° C. in a 5% carbon dioxide gas incubator. 96 hours later, 80 μL of CellTiter-Glo (Promega) was added to each well and fluorescence was measured.

| Compound | pIC50 [1] | pIC50 [2] |
| --- | --- | --- |
| CCC[C@H]1C(=O)N[C@@H]([C@@H](C)CC)C(=O)N(C)CC(=O)N(C)CC(=O)N(C)[C@@H](CC2CCCCC2)C(=O)N(C)CC(=O)N[C@@H](CCc2cc(F)c(C(F)(F)F)c(F)c2)C(=O)N2C[C@H](OCC)C[C@H]2C(=O)NC2(CCCC2)C(=O)N(C)[C@@H](C2CCCCC2)C(=O)N(C)[C@H](C(=O)N2CCCC2)CC(=O)N1C [Compound 1367] ([NMeNva]I[Sar][Sar][NMeCha][Sar][hPhe(3,5-F2-4-CF3)][Hyp](Et)[Ac5c][NMeChg][NMeD]-Pyrrolidide; lactam N-11) | 9.19 | ≥ 7.70 |
| CC[C@H](C)[C@@H]1NC(=O)[C@H](CC(C)C)N(C)C(=O)C[C@@H](C(=O)N2CCCCC2)N(C)C(=O)[C@H](C(C)C)N(C)C(=O)C2(CCCC2)NC(=O)[C@@H]2CCCN2C(=O)[C@H](CCc2ccc(C(F)(F)F)c(Cl)c2)NC(=O)CN(C)C(=O)[C@H](CC2CCCCC2)N(C)C(=O)[C@@H]2CCN2C(=O)[C@@H]2CCCN2C1=O [Compound 709] ([NMeL]IP[Aze][NMeCha][Sar][hPhe(3-Cl-4-CF3)]P[Ac5c][NMeV][NMeD]-Piperidide; lactam N-11) | 7.39 | < 6.30 |
| CC[C@H](C)[C@@H]1NC(=O)[C@H](CC(C)C)N(C)C(=O)C[C@@H](C(=O)N2CCOCC2)N(C)C(=O)[C@H](C2CCCC2)N(C)C(=O)C2(CCCC2)NC(=O)[C@@H]2CCCN2C(=O)[C@H](CCc2ccc(C(F)(F)F)c(F)c2)NC(=O)CN(C)C(=O)[C@H](C2CCCC2)N(C)C(=O)[C@@H]2CCN2C(=O)[C@H](C)N(C)C1=O [Compound 871] ([NMeL]I[NMeA][Aze][NMeGly(cPent)][Sar][hPhe(3-F,4-CF3)]P[Ac5c][NMeGly(cPent)][NMeD]-Morpholide; lactam N-11) | 9.11 | ≥ 7.70 |
| CC[C@H](C)[C@@H]1NC(=O)[C@H]([C@@H](C)O)N(C)C(=O)C[C@@H](C(=O)N2CCCCC2)N(C)C(=O)[C@H](C(C)C)N(C)C(=O)C2(CCCC2)NC(=O)[C@@H]2CCCN2C(=O)[C@H](CCc2ccc(C(F)(F)F)c(Cl)c2)NC(=O)CN(C)C(=O)[C@H](CC2CCCCC2)N(C)C(=O)[C@@H]2CCN2C(=O)[C@H](C)N(C)C1=O [Compound 91] ([NMeT]I[NMeA][Aze][NMeCha][Sar][hPhe(3-Cl-4-CF3)]P[Ac5c][NMeV][NMeD]-Piperidide; lactam N-11) | 8.82 | < 6.30 |
| CC[C@H](C)[C@@H]1NC(=O)[C@H](CC(C)C)N(C)C(=O)C[C@@H](C(=O)N2CCCCC2)N(C)C(=O)[C@H](C2CCCCC2)N(C)C(=O)C2(CCCC2)NC(=O)[C@H](Cc2cncc(OC)c2)N(C)C(=O)[C@H](CCc2ccc(C(F)(F)F)c(Cl)c2)NC(=O)CN(C)C(=O)[C@H](CC2CCCCC2)N(C)C(=O)CN(C)C(=O)CN(C)C1=O [Compound 887] ([NMeL]I[Sar][Sar][NMeCha][Sar][hPhe(3-Cl-4-CF3)][X24][Ac5c][NMeChg][NMeD]-Piperidide; lactam N-11) | 8.21 | < 6.30 |
| CC[C@H](C)[C@@H]1NC(=O)[C@H](CC(C)C)N(C)C(=O)C[C@@H](C)NC(=O)[C@H](C(C)C)N(C)C(=O)C2(CCCC2)NC(=O)[C@@H]2CCCN2C(=O)[C@H](CCc2ccc(C(F)(F)F)c(Cl)c2)NC(=O)CN(C)C(=O)[C@H](CC2CCCCC2)N(C)C(=O)[C@@H]2CCN2C(=O)[C@H](CCC(=O)NC)N(C)C1=O [Compound 810] (cyclo([Ac5c][NMeV][d(β3hA)][NMeL]I[NMeE](NHMe)[Aze][NMeCha][Sar][hPhe(3-Cl-4-CF3)]P)) | 7.31 | < 6.30 |
| CCO[C@@H]1C[C@H]2C(=O)NC3(CCCC3)C(=O)N(C)[C@@H](C3CCCC3)C(=O)N(C)[C@H](C(=O)N3CCOCC3)CC(=O)N(C)[C@@H](CC(C)C)C(=O)N[C@@H]([C@@H](C)CC)C(=O)N(C)[C@@H](C)C(=O)N3CC[C@H]3C(=O)N(C)[C@@H](CC3CCCCC3)C(=O)N(C)CC(=O)N[C@@H](CCc3ccc(C(F)(F)F)c(Cl)c3)C(=O)N2C1 [Compound 1259] ([NMeL]I[NMeA][Aze][NMeCha][Sar][hPhe(3-Cl-4-CF3)][Hyp](Et)[Ac5c][NMeGly(cPent)][NMeD]-Morpholide; lactam N-11) | 9.31 | ≥ 7.70 |
| CCO[C@@H]1C[C@H]2C(=O)NC3(CCCC3)C(=O)N(C)[C@@H](C3CCCCC3)C(=O)N(C)[C@H](C(=O)N3CCCC3)CC(=O)N(C)[C@@H](C3CCC3)C(=O)N[C@@H]([C@@H](C)CC)C(=O)N(C)CC(=O)N(C)CC(=O)N(C)[C@@H](CC3CCCCC3)C(=O)N(C)CC(=O)N[C@@H](CCc3ccc(C(F)(F)F)c(Cl)c3)C(=O)N2C1 [Compound 1204] ([NMeGly(cBu)]I[Sar][Sar][NMeCha][Sar][hPhe(3-Cl-4-CF3)][Hyp](Et)[Ac5c][NMeChg][NMeD]-Pyrrolidide; lactam N-11) | 9.36 | ≥ 7.70 |

From US20240148821A1, “PHARMACEUTICAL USE OF CYCLIC PEPTIDE COMPOUND” (CHUGAI SEIYAKU KABUSHIKI KAISHA, priority 2021, published 2024)
